{
  "source": "ChEMBL document CHEMBL4602704",
  "about": "“Discovery and Optimization of Glucose Uptake Inhibitors” (J Med Chem, 2020)",
  "key": {"in vivo [1]": {"test": "in vivo", "conditions": "CD-1, mouse, brain, po, 100 mg/kg"}, "in vitro [2]": {"test": "in vitro", "conditions": "human, Caco-2"}, "in vitro [3]": {"test": "in vitro", "conditions": "human, Caco-2", "remark": "listed apart in the source"}, "in vivo [4]": {"test": "in vivo", "conditions": "mouse, po, 30 mg/kg"}, "in vivo [5]": {"test": "in vivo", "conditions": "mouse, po, 30 mg/kg", "remark": "listed apart in the source"}, "in vivo [6]": {"test": "in vivo", "conditions": "mouse, iv, 10 mg/kg"}, "in vivo [7]": {"test": "in vivo", "conditions": "mouse, iv, 10 mg/kg", "remark": "listed apart in the source"}, "in vivo [8]": {"test": "in vivo", "conditions": "mouse"}, "in vivo [9]": {"test": "in vivo", "conditions": "mouse, po, 30 mg/kg", "remark": "listed apart in the source"}, "in vivo [10]": {"test": "in vivo", "conditions": "mouse, brain and plasma, po, 30 mg/kg"}, "in vivo [11]": {"test": "in vivo", "conditions": "rat, po, 30 mg/kg"}, "in vivo [12]": {"test": "in vivo", "conditions": "rat, po, 30 mg/kg", "remark": "listed apart in the source"}, "in vivo [13]": {"test": "in vivo", "conditions": "rat, iv, 10 mg/kg"}, "in vivo [14]": {"test": "in vivo", "conditions": "rat, iv, 10 mg/kg", "remark": "listed apart in the source"}, "in vivo [15]": {"test": "in vivo", "conditions": "rat"}, "in vivo [16]": {"test": "in vivo", "conditions": "rat, po, 30 mg/kg", "remark": "listed apart in the source"}, "in vivo [17]": {"test": "in vivo", "conditions": "dog, po, 10 mg/kg"}, "in vivo [18]": {"test": "in vivo", "conditions": "dog, po, 10 mg/kg", "remark": "listed apart in the source"}, "physchem [19]": {"test": "physchem", "conditions": "phosphate buffered saline, pH 2"}, "physchem [20]": {"test": "physchem", "conditions": "phosphate buffered saline, pH 4.5"}, "physchem [21]": {"test": "physchem", "conditions": "phosphate buffered saline, pH 6.8"}, "in vitro [22]": {"test": "in vitro", "conditions": "mouse, liver microsomes"}, "in vitro [23]": {"test": "in vitro", "conditions": "mouse, plasma"}, "in vitro [24]": {"test": "in vitro", "conditions": "rat, liver microsomes"}, "in vitro [25]": {"test": "in vitro", "conditions": "dog, liver microsomes"}, "in vitro [26]": {"test": "in vitro", "conditions": "human, liver microsomes"}, "[27]": {"test": "Apparent permeability in human Caco2 cells", "type": "ADME, cell-based", "conditions": "Caco-2"}},
  "data": [
    {"smiles": "CC(C)(C)NC(=O)COc1cccc(-c2nc3c(c(Nc4ccc(-c5cn[nH]c5)cc4)n2)CN(C2CCC2)CC3)c1", "values": [
      {"measurement": "Kp at 1 h", "setting": "in vivo [1]", "value": 0.1},
      {"measurement": "Papp A→B at 5 µM", "setting": "in vitro [2]", "value": 4.58, "unit": "×10⁻⁶ cm/s"},
      {"measurement": "Papp B→A at 5 µM", "setting": "in vitro [3]", "value": 6.09, "unit": "×10⁻⁶ cm/s"}
    ]},
    {"smiles": "CC1(NC(=O)COc2cccc(-c3nc4c(c(Nc5ccc(-c6cn[nH]c6)cc5)n3)CN(C3CCC3)CC4)c2)CC1", "values": [
      {"measurement": "Cmax", "setting": "in vivo [4]", "value": 2520, "unit": "ng/mL"},
      {"measurement": "AUC", "setting": "in vivo [5]", "value": 5890, "unit": "ng·h/mL"},
      {"measurement": "clearance", "setting": "in vivo [6]", "value": 40, "unit": "mL/min/kg"},
      {"measurement": "Vd", "setting": "in vivo [7]", "value": 1.7, "unit": "L/kg"},
      {"measurement": "half-life", "setting": "in vivo [8]", "value": 0.785, "unit": "h"},
      {"measurement": "bioavailability", "setting": "in vivo [9]", "value": 45.4, "unit": "%"},
      {"measurement": "Kp at 2 h", "setting": "in vivo [10]", "value": 0.05},
      {"measurement": "Cmax", "setting": "in vivo [11]", "value": 1680, "unit": "ng/mL"},
      {"measurement": "AUC", "setting": "in vivo [12]", "value": 6810, "unit": "ng·h/mL"},
      {"measurement": "clearance", "setting": "in vivo [13]", "value": 37, "unit": "mL/min/kg"},
      {"measurement": "Vd", "setting": "in vivo [14]", "value": 4.51, "unit": "L/kg"},
      {"measurement": "half-life", "setting": "in vivo [15]", "value": 2.59, "unit": "h"},
      {"measurement": "bioavailability", "setting": "in vivo [16]", "value": 49.4, "unit": "%"},
      {"measurement": "Kp at 1 h", "setting": "in vivo [1]", "value": 0.05},
      {"measurement": "bioavailability", "setting": "in vivo [17]", "value": 19, "unit": "%"},
      {"measurement": "bioavailability", "setting": "in vivo [18]", "value": 29, "unit": "%"},
      {"measurement": "solubility", "setting": "physchem [19]", "value": 291, "unit": "µM"},
      {"measurement": "solubility", "setting": "physchem [20]", "value": 256, "unit": "µM"},
      {"measurement": "solubility", "setting": "physchem [21]", "value": 1.4, "unit": "µM"},
      {"measurement": "half-life at 2 µM", "setting": "in vitro [22]", "value": 1.17, "unit": "h"},
      {"measurement": "remaining at 18 h", "setting": "in vitro [23]", "value": "> 95", "unit": "%"},
      {"measurement": "Papp A→B at 5 µM", "setting": "in vitro [2]", "value": 11.2, "unit": "×10⁻⁶ cm/s"},
      {"measurement": "Papp B→A at 5 µM", "setting": "in vitro [3]", "value": 4.33, "unit": "×10⁻⁶ cm/s"},
      {"measurement": "half-life at 2 µM", "setting": "in vitro [24]", "value": 1.05, "unit": "h"},
      {"measurement": "half-life", "setting": "in vitro [25]", "value": 0.967, "unit": "h"},
      {"measurement": "half-life", "setting": "in vitro [26]", "value": 1.93, "unit": "h"}
    ]},
    {"smiles": "CCOc1ccc2nc(-c3cccc(OCC(=O)NC(C)C)c3)nc(Nc3ccc(-c4cn[nH]c4)cc3)c2c1", "values": [
      {"measurement": "Papp", "setting": "[27]", "value": 2, "unit": "×10⁻⁶ cm/s"},
      {"measurement": "solubility", "setting": "physchem [19]", "value": 3.36, "unit": "µM"},
      {"measurement": "solubility", "setting": "physchem [20]", "value": 0.01, "unit": "µM"},
      {"measurement": "solubility", "setting": "physchem [21]", "value": 0.03, "unit": "µM"}
    ]}
  ]
}
